Measurements taken from article PMC11481179, “Development and Application of Reversible and Irreversible Covalent Probes for Human and Mouse Cathepsin‐K Activity Detection, Revealing Nuclear Activity” (Advanced Science, 2024).

Molecular target: T1, endogenous CTSK in intact U-2 OS cells (Homo sapiens, UniProt P43235)
T1 construct: ability to label endogenous CTSK activity in intact cells; endogenous in cells; host or cells: U-2 OS
T1 sequence (P43235 115-329): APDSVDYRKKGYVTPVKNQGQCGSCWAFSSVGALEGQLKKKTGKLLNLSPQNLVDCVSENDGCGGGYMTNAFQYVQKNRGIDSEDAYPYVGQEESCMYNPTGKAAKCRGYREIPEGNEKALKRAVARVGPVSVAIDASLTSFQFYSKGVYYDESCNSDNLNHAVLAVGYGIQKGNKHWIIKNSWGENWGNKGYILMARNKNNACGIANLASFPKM
Assay: Labeling of endogenous CTSK in intact cells, fluorescent SDS-PAGE
Assay type: cell-based
Protocol: To test probe selectivity and the ability to label endogenous CTSK activity in intact cells, three cell lines were selected: human osteosarcoma MG‐63 and U‐2 OS, and human glioblastoma U‐87 MG; all cell lines express CTSK along with other lysosomal cathepsins.^[ [44] ^] First, the ABPs were incubated with intact U‐2 OS cells for different durations of time, and the probe selectivity toward CTSK was examined, with a pan cathepsin ABP, GB123, used as a control that labels CTS B, K, L, and S in cells. After cell lysis, the probe‐labeled enzymes were resolved and detected by a fluorescent scan of the SDS‐PAGE. […] Specifically, intact MG‐63 cells required a 5 h incubation (Figure 2b,c), while U‐87 MG cells required a 2 h incubation (Figure 2d).
Figure 2 Labeling of endogenous CTSK in intact cells. a) U2‐OS cells were treated with DMSO or 5 µM of the indicated inhibitors in culture medium, for 2 h, then with indicated ABPs [5 µM] in a culture medium for indicated times, followed by cell lysis, SDS‐PAGE separation, and fluorescent scanning of the gel at 635/670 nm. An immunoblot of CTSK of the same gel is presented below. b) Intact MG63 cells were treated with GD32 5 µM in the culture media for indicated times, cell lysates were analyzed as in a. CTSK immunoblot is presented, pro and mature CTSK are indicated by arrows. c) MG63 cells and d) U87MG cells were treated with DMSO, or 5 µM of indicated inhibitors in culture medium for 2 h, followed by incubation with 5 µM of indicated probes for 5 h (GD32 and GD42) and 2 h (GB123), cell lysates were analyzed by fluorescent SDS PAGE as in a. […] In (c) a CTSK immunoblot of a representative MG63 lane on the right. e) Labeling of active mature CTSK by GD32 in A549 and U2‐0S cells in externally adjusted different pH. Cells were incubated with 5 µM GD32 for 24 h in growth media at indicated pHs, prior to the cell lysis, cell lysates were analysed as in a. CTSK immunoblot below. f) A549 cells were incubated with increasing concentrations of GD30 for 2 h at pH = 5, followed by the incubation with 5 µM GD32 for 24 h prior to the cell lysis, cell lysates were analyzed as in a. g) Intact U‐87 MG cells or U‐87 MG cell lysates were treated with 5 µM GD32 for 2 h, the intact cells were then lysed and all lysates were analyzed as in (a). h) Intact or lysates of U‐87MG were treated with GD32 for 2 h then immunoprecipitation was done with an anti‐CTSK antibody. Input (I), immunoprecipitation (IP), and output (O) were separated by a 14% SDS‐PAGE and scanned for fluorescence. The gel was then blotted and reacted with an anti‐cystatin B antibody below. ODN (Odanacatib), GB111 (GB111‐NH2), mCTSK (mature CTSK). […]
deoxycholate). After adding sample buffer, samples were boiled for 10 minutes, and analyzed […]
lysates were analyzed as described above. […]

SMILES | effect of inhibitor preincubation on GD32-labeled CTSK band (inhibitor 5 µM, 2 h, then GD32 5 µM) | CTSK specificity of labeling (probe 5 µM, incubation up to 24 h)
C#CCNC(=O)[C@H](CC(C)C)N[C@@H](c1ccc(-c2ccc(S(=O)(=O)CCNC(=O)OC(C)(C)C)cc2)cc1)C(F)(F)F [GD30] | depletion of the CTSK‐specific band | –
C#CCNC(=O)[C@H](CC(C)C)N[C@@H](c1ccc(-c2ccc(S(=O)(=O)CCNC(=O)CCCCC[N+]3=C(/C=C/C=C/C=C4/N(C)c5ccc(S(=O)(=O)O)cc5C4(C)C)C(C)(C)c4cc(S(=O)(=O)O)ccc43)cc2)cc1)C(F)(F)F [GD32] | – | retained its CTSK specificity up to 24 h
